{"source": "patent US20210379046A1", "about": "“Methods of Treating Diseases Using Kinase Modulators” (Memorial Sloan Kettering Cancer Center, priority 2018, published 2021)", "key": {"TT cells": {"system": "TT cells", "assay": "Flow cytometry of cell surface HLA on TT cells", "type": "cell-based, human", "conditions": "72 hrs", "protocol": "(§1) If adherent cells, they were seeded one day before treatment."}, "TPC1 cells [1]": {"system": "TPC1 cells", "assay": "ADCC chromium-51 release assay with ESK1 and human PBMCs on inhibitor-pretreated TPC1 cells", "type": "cell-based", "protocol": "Peripheral blood mononuclear cells were derived from healthy donors by Ficoll density centrifugation after receiving informed consent on Memorial Sloan Kettering Institutional Review board-approved protocols. TPC1 cells treated with RET inhibitor drugs and DMSO control were labeled with chromium-51 and co-cultured with PBMCs and ESK (or its isotype control, hIgG1). Different E:T ratios were used and after 5 hrs of incubation at 37° C., the supernatant was harvested and chromium levels were measured by Chromium-51 release assay (Perkin Elmer). Higher chromium levels indicated higher levels of cytotoxicity.\nAfter the addition of ESK and peripheral blood mononuclear cells for 5 hrs, chromium release was measured.\nFor each experiment reported, fresh peripheral blood mononuclear cells were derived from a healthy donor by Ficoll density centrifugation after receiving informed consent on Memorial Sloan Kettering Institutional Review Board-approved protocols. […] Cells were then labeled with 1 uCi/well chromium-51 for 1 hr at 37° C. […] Different effector:target ratios were used and after 5 hrs of incubation at 37° C., the supernatant was harvested and chromium levels were measured through standard chromium-51 release assay on a Top Count machine (Perkin Elmer)."}, "LC-2/ad cells": {"system": "LC-2/ad cells", "assay": "Flow cytometry of cell surface HLA on LC-2/ad cells", "type": "cell-based, human", "conditions": "72 hrs", "protocol": "as §1"}, "TPC1 cells [2]": {"system": "TPC1 cells", "assay": "Flow cytometry of cell surface HLA and checkpoint ligands on TPC1 cells", "type": "cell-based, human", "protocol": "as §1"}, "[3]": {"system": "pSTAT3, pSTAT1 in TPC1 cells", "assay": "Western blot of STAT phosphorylation in TPC1 cells", "type": "cell-based, human", "conditions": "TPC1, 10 nM AST487, 24 hrs", "protocol": "Cells were seeded in a 60 mm dish or 6 well plates. After the appropriate time point, cells were harvested and lysed and protein was quantified by a Lowry assay (Bio-Rad DC Protein Assay; #5000116). Protein levels were normalized and run on SDS PAGE gels (Bio-Rad). Protein was transferred to a nitrocellulose membrane using semi-dry transfer. Membrane was blocked and incubated with respective antibodies. When needed, secondary antibodies with HRP were incubated for 1 hr. Enhanced chemiluminescent substrate for HRP enzymes was used to image protein levels (Thermo-Fischer; #34095).\nCells were seeded in a 60 mm dish or 6 well plates. After the appropriate time point, cells were harvested, lysed in RIPA buffer (Thermo Instruments) and protein concentration was quantified by a Lowry assay (using the Bio-Rad DC Protein Assay; #5000116 on a Spectramax device from Molecular Devices). Protein loading levels were equalized per lane and separated on SDS gels (Bio-Rad). Protein was transferred to a nitrocellulose membrance using semi-dry transfer (BioRad). Membranes were blocked with Omniblock (American Bio) and incubated with respected antibodies. When needed, secondary antibodies with HRP were incubated for 1 hr. Enhanced chemiluminescent substrate for HRP enzymes was used to image protein levels (Thermo-Fischer; #34095) on a ChemiDoc MP imager with Soft Max Pro software (Biorad)."}}, "note": "Values joined by “and” are separate entries in the source; they are usually repeats but may differ in a detail not shown here. Identical values can stand only once. “Also recorded” adds a separate entry of the source.", "data": [{"smiles": "CCN1CCN(Cc2ccc(NC(=O)Nc3ccc(Oc4cc(NC)ncn4)cc3)cc2C(F)(F)F)CC1", "note": "[AST487]", "values": [{"measurement": "surface HLA", "setting": "TT cells", "value": "increased in a AST487 dose-related manner; also recorded: increases in surface HLA"}, {"measurement": "ADCC activity of ESK1 against pretreated TPC1 cells", "setting": "TPC1 cells [1]; TPC1 pre-incubated with RET inhibitor", "value": "improved antibody-dependent cellular cytotoxicity (ADCC) activity; also recorded: increased in vitro ADCC cytotoxicity"}, {"measurement": "specific lysis", "setting": "TPC1 cells [1]; TPC1 pretreated 72 hrs with 10 nM AST487, ESK and PBMCs 5 hrs, 50:1 E:T", "value": 20, "unit": "%"}, {"measurement": "surface HLA", "setting": "LC-2/ad cells", "value": "only small increases were seen; also recorded: increases in surface HLA"}, {"measurement": "HLA levels increase without STAT3 knockdown", "setting": "TPC1 cells [2]; TPC1, 10 nM AST487, 72 hrs", "value": 3, "unit": "fold"}, {"measurement": "increase in surface HLA-A,B,C levels", "setting": "TPC1 cells [2]; TPC1, 72 hours", "value": "3- to 4 fold and 3 to 4 fold"}, {"measurement": "surface HLA-A*02:01", "setting": "TPC1 cells [2]; TPC1, 72 hrs", "value": "dose dependent increase in surface HLA-A*02"}, {"measurement": "surface HLA-A,B,C", "setting": "TPC1 cells [2]; TPC1, 72 hrs", "value": "Surface HLA-A,B,C increase"}, {"measurement": "surface HLA-E levels", "setting": "TPC1 cells [2]; TPC1, 72 hrs", "value": "did not change"}, {"measurement": "HLA upregulation, AST487 compared with trametinib at the same concentrations", "setting": "TPC1 cells [2]; TPC1, 72 hrs, normalized to DMSO", "value": "more potent and increased HLA levels at lower doses of drug; also recorded: higher levels of HLA upregulation"}, {"measurement": "HLA-A02 (BB7-FITC) surface level", "setting": "TPC1 cells [2]; TPC1, AST 487 10 nM, 72 hours", "value": "led to upregulation of HLA"}, {"measurement": "HLA levels increase after siSTAT3 pretreatment", "setting": "TPC1 cells [2]; TPC1, siSTAT3 24 hrs before 10 nM AST487, 72 hrs, HLA-A*02", "value": "~6", "unit": "folds"}, {"measurement": "increase in surface HLA, control group (pBabe)", "setting": "TPC1 cells [2]; TPC1 pBabe, 72 hours", "value": "~3", "unit": "fold"}, {"measurement": "increase in surface HLA, BRAF V600E cells", "setting": "TPC1 cells [2]; TPC1 with introduced BRAF V600E mutation", "value": "about 2 fold"}, {"measurement": "STAT3 phosphorylation", "setting": "[3]", "value": "increased significantly; also recorded: increased phosphorylation of STAT3 at 24 hrs"}]}]}
